The results in this text go back to patent US7453009B2, “Hydroxybiphenyl carboxylic acids and derivatives, method for producing the same and their use” (Sanofi-Aventis Deutschland GmbH, priority 2004, dated 2008).

For orientation: pIC50 means the IC50 on a negative log10 scale, so that one unit is a factor of ten.

pIC50: −log10 of the molar value.

The target in this assay is T1, recombinant hPTP1B (phosphotyrosine phosphatase 1B) (Homo sapiens, UniProt P18031).
T1 construct: but without the carboxy-terminal hydrophobic region (corresponding to 1-299 aa); made in house; host or cells: Sf9 insect cells (baculovirus, Bac-to-Bac, pFASTBAC)
T1 sequence (P18031 1-299): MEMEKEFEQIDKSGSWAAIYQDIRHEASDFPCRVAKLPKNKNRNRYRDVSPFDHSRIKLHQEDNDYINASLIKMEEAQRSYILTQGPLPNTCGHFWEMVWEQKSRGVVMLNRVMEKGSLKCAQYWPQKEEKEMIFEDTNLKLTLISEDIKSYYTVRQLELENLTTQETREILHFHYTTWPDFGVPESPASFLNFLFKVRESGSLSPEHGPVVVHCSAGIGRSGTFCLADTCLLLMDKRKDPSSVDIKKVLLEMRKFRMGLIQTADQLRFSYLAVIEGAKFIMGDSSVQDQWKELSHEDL
The assay can be described thus: Enzymatic test for inhibition of a phosphatase (phosphopeptide dephosphorylation / p-nitrophenyl phosphate cleavage). Particulars: Table 3 Biological activity; inhibition of PTP1B; table does not say which substrate format (A phosphopeptide or B pNPP). Type of assay: biochemical. How it is done:
Enzymatic Test Systems for Detecting Inhibition of a Phosphatase
The compounds of the formula I were tested for their phosphatase-inhibiting effect in an in vitro assay. The enzyme preparation and the performance of the assay was carried out as follows.
A) Cell Culture: • Sf9 cells (=Spodoptera frugiperda cell type; obtainable from invitrogen) are cultured in Grace's supplemented medium (Gibco-BRL) with 10% heat-inactivated fetal calf serum (Gibco-BRL) in spinner flasks at 28° C. in accordance with the protocol of Summers and Smith (A Manual for Methods for Baculovirus Vectors and Insect Culture Procedures [Bulletin No. 15555]. Texas A & M University, Texas Agricultural Experiment Station, College Station, Tex., 1987). • Construction of recombinant Baculovirus transfer vectors: cDNA coding for the regulatory and catalytic domains of human PTP1B, but without the carboxy-terminal hydrophobic region (corresponding to 1-299 aa) was obtained by polymerase chain reaction via primers with attached cloning sites and suitable cDNA templates (obtainable for example from invitrogen) and then cloned into baculovirus expression vectors (Amersham Pharmacia Biotech.). The recombinant baculoviruses were prepared with the aid of the Bac-to-Bac baculovirus expression system (obtainable from Gibco-BRL). The gene was cloned into the pFASTBAC donor plasmid (obtainable from Life Technologies). The resulting plasmid was transformed into competent DH10BAC Escherichia coli cells (obtainable from Life Technologies). After transposition and antibiotic selection, the recombinant plasmid DNA was isolated from selected E. coli colonies and then used for the transfection of Sf9 insect cells. The virus particle in the supernatant medium was amplified three times up to a viral stock volume of 500 ml.
B) Production of Recombinant Protein: • Baculovirus infection of a 500 ml spinner culture of Sf9 cells was essentially carried out as described by Summers and Smith (see above). Sf9 cells at a density of 1-3×10^6 cells/ml were pelleted by centrifugation at 300 g for 5 min, the supernatant was removed, and the cells were resuspended in a density of 1×10^7 cells/ml in a suitable recombinant viral stock (MOI 10). After careful shaking at room temperature for 1.5 h, fresh medium was added in order to achieve a cell density of 1×10^6 cells/ml. The cells were then cultured in the suspension at 28° C. for suitable periods after postinfection.
C) Cellular Fractionation and Complete Cell Extracts of Infected Sf9 Cells: • After the postinfection, aliquots were subjected to an analysis of protein expression by SDS-PAGE and Western blot analysis. The cellular fractionation was carried out as described (Cromlish, W. and Kennedy, B. Biochem. Pharmacol. 52: 1777-1785, 1996). Complete cell extracts were obtained from 1 ml aliquots of the infected Sf9 cells after certain times postinfection. The pelleted cells (300×g, 5 min) were washed once in phosphate-buffered saline (4° C.), resuspended in 50 μl of water and disrupted by repeated freezing/thawing. Protein concentrations were determined with the aid of the Bradford method and bovine serum albumin as standard.
A) Dephosphorylation of a Phosphopeptide: • This assay is based on the release of phosphate from a consensus substrate peptide which is detected in the nanomolar concentration range by the malachite green/ammonium molybdate method (Lanzetta, P. A., Alvarez, L. J., Reinach, P. S., Candia, O. A. Anal Biochem. 100: 95-97, 1979) adapted for the microtiter plate format. The dodecatrisphosphopeptide TRDIYETDYYRK (Biotrend, Cologne) corresponds to amino acids 1142-1153 of the catalytic domain of the insulin receptor and is (auto)phosphorylated on tyrosine residues 1146, 1150 and 1151. […]
Turning to `COc1ccccc1CN(Cc1ccc(-c2ccc(O)c(C(=O)O)c2)cc1)C(=O)c1ccc(Br)cc1` [Example 1, 4′-{[(4-Bromobenzoyl)-(2-methoxybenzyl)amino]methyl}-4-hydroxybiphenyl-3-carboxylic acid], the pIC50 is 5.92.
With `COc1ccc(CN(Cc2ccc(-c3ccc(O)c(C(=O)O)c3)cc2)C(=O)c2ccc3c(c2)OCO3)cc1` [Example 2, 4′-{[(Benzo[1,3]dioxole-5-carbonyl)-(4-methoxybenzyl)amino]-methyl}-4-hydroxybiphenyl-3-carboxylic acid], the pIC50 is 5.92.
With `O=C(O)c1cc(-c2ccc(CN(Cc3ccccc3)C(=O)c3ccc4c(c3)OCO4)cc2)ccc1O` [Example 3, 4′-{[(Benzo[1,3]dioxole-5-carbonyl)benzylamino]methyl}-4-hydroxybiphenyl-3-carboxylic acid], the negative logarithm of the IC50 (pIC50) was 5.82.
The value for `COc1cccc(C(=O)N(Cc2ccc(-c3ccc(O)c(C(=O)O)c3)cc2)Cc2ccccc2OC)c1` [Example 4, 4-Hydroxy-4′-{[(3-methoxybenzoyl)-(2-methoxybenzyl)amino]-methyl}biphenyl-3-carboxylic acid] was 5.85; that for `O=C(O)c1cc(-c2ccc(CN(CC3CC3)C(=O)C3CCCCC3)cc2)ccc1O` [Example 5, 4′-[(Cyclohexanecarbonylcyclopropylmethylamino)methyl]-4-hydroxybiphenyl-3-carboxylic acid] was 5.80.
The figure for `COc1ccccc1CN(Cc1ccc(-c2ccc(O)c(C(=O)O)c2)cc1)C(=O)C1CCCCC1` [Example 6, 4′-{[Cyclohexanecarbonyl-(2-methoxybenzyl)amino]methyl}-4-hydroxybiphenyl-3-carboxylic acid] is 5.89.
As to `Cc1ccc(CN(Cc2ccc(-c3ccc(O)c(C(=O)O)c3)cc2)C(=O)c2ccc(Br)cc2)cc1` [Example 7, 4′-{[(4-Bromobenzoyl)-(4-methylbenzyl)amino]methyl}-4-hydroxybiphenyl-3-carboxylic acid], the pIC50 is 6.00.
The figure for `CCCCC(=O)N(Cc1ccc(-c2ccc(O)c(C(=O)O)c2)cc1)CC1CC1` [Example 8, 4′-[(Cyclopropylmethylpentanoylamino)methyl]-4-hydroxybiphenyl-3-carboxylic acid] is 5.72; for `Cc1ccc(CN(Cc2ccc(-c3ccc(O)c(C(=O)O)c3)cc2)C(=O)C2CCCCC2)cc1` [Example 10, 4′-{[Cyclohexanecarbonyl-(4-methylbenzyl)amino]methyl}-4-hydroxybiphenyl-3-carboxylic acid] it is 5.80; for `O=C(O)c1cc(-c2ccc(CN(CCc3ccccc3)C(=O)c3ccc4c(c3)OCO4)cc2)ccc1O` [Example 11, 4′-{[(Benzo[1,3]dioxole-5-carbonyl)phenethylamino]methyl}-4-hydroxybiphenyl-3-carboxylic acid] it is 5.80.
Regarding `COc1cccc(C(=O)N(Cc2ccccc2)Cc2ccc(-c3ccc(O)c(C(=O)O)c3)cc2)c1` [Example 12, 4′-{[Benzyl-(3-methoxybenzoyl)amino]methyl}-4-hydroxybiphenyl-3-carboxylic acid], the pIC50 was 5.80.
On to `COc1cccc(C(=O)N(Cc2ccc(C)cc2)Cc2ccc(-c3ccc(O)c(C(=O)O)c3)cc2)c1` [Example 13, 4-Hydroxy-4′-{[(3-methoxybenzoyl)-(4-methylbenzyl)amino]methyl}-biphenyl-3-carboxylic acid], for which the pIC50 was 5.77.
For the compound `O=C(O)c1cc(-c2ccc(CN(CC3CC3)C(=O)c3ccc4c(c3)OCO4)cc2)ccc1O` [Example 14, 4′-{[(Benzo[1,3]dioxole-5-carbonyl)cyclopropylmethylamino]methyl}-4-hydroxybiphenyl-3-carboxylic acid], the pIC50 is 5.74.
Regarding `CCCCCN(Cc1ccc(-c2ccc(O)c(C(=O)O)c2)cc1)C(=O)c1ccc2c(c1)OCO2` [Example 15, 4′-{[(Benzo[1,3]dioxole-5-carbonyl)pentylamino]methyl}-4-hydroxybiphenyl-3-carboxylic acid], the pIC50 was 5.82.
The figure for `O=C(O)c1cc(-c2ccc(CN(Cc3ccc(F)cc3)C(=O)c3ccc4c(c3)OCO4)cc2)ccc1O` [Example 16, 4′-{[(Benzo[1,3]dioxole-5-carbonyl)-(4-fluorobenzyl)amino]methyl}-4-hydroxy-biphenyl-3-carboxylic acid] is 5.72; for `COc1cccc(C(=O)N(Cc2ccc(F)cc2)Cc2ccc(-c3ccc(O)c(C(=O)O)c3)cc2)c1` [Example 17, 4′-{[(4-Fluorobenzyl)-(3-methoxybenzoyl)amino]methyl}-4-hydroxybiphenyl-3-carboxylic acid] it is 5.80.
Turning to `O=C(O)c1cc(-c2ccc(CN(Cc3ccc(F)cc3)C(=O)/C=C/c3ccccc3)cc2)ccc1O` [Example 18, 4′-{[(4-Fluorobenzyl)-(3-phenylacryloyl)amino]methyl}-4-hydroxybiphenyl-3-carboxylic acid], the pIC50 is 5.84.
As to `Cc1ccc(CN(Cc2ccc(-c3ccc(O)c(C(=O)O)c3)cc2)C(=O)c2ccc3c(c2)OCO3)cc1` [Example 19, 4′-{[(Benzo[1,3]dioxole-5-carbonyl)-(4-methylbenzyl)amino]methyl}-4-hydroxy-biphenyl-3-carboxylic acid], the pIC50 is 5.89.
With `O=C(O)c1cc(-c2ccc(CN(C(=O)c3ccc4c(c3)OCO4)C3CCCC3)cc2)ccc1O` [Example 20, 4′-{[(Benzo[1,3]dioxole-5-carbonyl)cyclopentylamino]methyl}-4-hydroxy-biphenyl-3-carboxylic acid], the pIC50 was 5.74.
The figure for `O=C(O)c1cc(-c2ccc(CN(Cc3ccccc3)C(=O)c3ccc(Br)cc3)cc2)ccc1O` [Example 21, 4′-{[Benzyl-(4-bromobenzoyl)amino]methyl}-4-hydroxybiphenyl-3-carboxylic acid] is 6.22; for `O=C(O)c1cc(-c2ccc(CN(Cc3ccccc3)C(=O)c3ccco3)cc2)ccc1O` [Example 22, 4′-{[Benzyl(furan-2-carbonyl)amino]methyl}-4-hydroxybiphenyl-3-carboxylic acid] it is 5.89; for `O=C(O)c1cc(-c2ccc(CN(Cc3ccc(F)cc3)C(=O)c3ccc(Br)cc3)cc2)ccc1O` [Example 23, 4′-{[(4-Bromobenzoyl)-(4-fluorobenzyl)amino]methyl}-4-hydroxybiphenyl-3-carboxylic acid] it is 6.30.
The figure for `CCCCC(=O)N(Cc1ccc(OC)cc1)Cc1ccc(-c2ccc(O)c(C(=O)O)c2)cc1` [Example 24, 4-Hydroxy-4′-{[(4-methoxybenzyl)pentanoylamino]methyl}-biphenyl-3-carboxylic acid] is 6.22.
